Consider 16 compounds from patent US10738062B2, “Chromane-substituted tetracyclic compounds and uses thereof for the treatment of viral diseases” (Merck Sharp & Dohme Corp., priority 2016, dated 2020).

Common to all, as to set-up: species or system Hepatitis C virus
One test deals with HCV replicon 1A. The experiment in a line: Cell-based HCV replicon assay (Replicon Assay A), replicon 1A. As to conditions: replicon RNA by real time PCR, day 3. As for the experimental part:
(§1) To measure cell-based anti-HCV activity of compounds of the present invention, two complimentary assays were employed using various replicons. In the first assay (“Replicon Assay A”), replicon cells were seeded at 2000 cells/well in 384-well 384-well flat bottom tissue culture treated clear bottom plate (Corning 3707) in the presence of the test compound. Various concentrations of test compound, typically in 10 serial dilutions, were added to the assay mixture, with the starting concentration ranging from 333.3 nM to 1.667 nM. The final concentration of DMSO was 0.5%. Fetal bovine serum was 5%, in the assay media. Cells were harvested on day 3 by removing media and washing the cells with a suitable wash buffer. The cells were lysed with the addition of 1× Qiagen lysis buffer (Cat #1062731). The replicon RNA level was measured using real time PCR (TaqMan® EZ RT-PCR, Applied Biosystems 403028) with the following primers and probes: […]
(§2) Cyclophilin RNA was used as endogenous control and was amplified in the same reaction as NS5B (multiplex PCR). The real-time RT-PCR reactions were run on ABI PRISM 7900HT Sequence Detection System using the following program: 50° C. for 2 minutes, 60° C. for 30 minutes, 95° C. for 5 minutes, 40 cycles of 94° C. for 20 sec, 55° C. for 1 minutes.
(§3) The amount of HCV replicon RNA per cell was quantified using a linear regression curve for a known nanogram (ng) amount of HCV replicon total RNA. This was established by plotting the Cycle Threshold values (Ct) from the Neo probe and primer set versus the log (ng) for each HCV replicon total RNA standard. The amount of HCV RNA for each replicon sample was calculated by taking the sample's Ct value, minus the line intercept, divided by the slope of the line. Similarly, the amount of Cyclophilin mRNA per cell was also quantified using a linear regression curve for a known nanogram (ng) amount of HCV replicon total RNA. Again, this was established by plotting the Cycle Threshold values (Ct) from the Cyclophilin probe and primer set versus the log (ng) for each HCV replicon total RNA standard.
(§4) The real-time RT-PCR reactions were run on ABI PRISM 7900HT or Viia7 Sequence Detection System using the following program: 48° C. for 30 minutes, 95° C. for 10 minutes, 40 cycles of 95° C. for 15 sec, 60° C. for 1 minutes. The 50% effective concentration (EC50) was the drug concentration necessary to achieve an increase in the cycle threshold (CT) of 1 over the projected baseline CT.
(§5) Data was obtained for various compounds of the present invention using the methods described in the Example above, and is presented in the table immediately below. EC50 data for replicons 1A, 1AY93H and 2B were obtained using Replicon Assay A and EC50 data for replicon 1B was obtained using Replicon Assay B.
(In general: Replicon systems follow genome replication, usually without infectious particles.)

The next test has as its system HCV replicon 1B. Nature of the test: Cell-based HCV replicon assay (Replicon Assay B), replicon 1B. As to conditions: replicon RNA by real-time PCR, 3 days. As for the experimental part: In an alternate assay (“Replicon Assay B”), 1000 cells were seeded per well in a 384-well collagen coated black plate from Greiner bio-one (Cat #781946) in 5% FBS. Inhibitors of this invention were added at 24 h post-seeding, and the plates were incubated for 3 days. Cells were subsequently lysed with Qiagen lysis buffer (Cat #1062731) to extract the RNA. HCV replicon RNA level was measured by real-time PCR using the RNA-to-CT kit from Applied Biosystem (Cat #4392656) and genotype-specific primers and probes. The amplicon was located within NS5B. […] (SEQ. ID NO. 2); the probe sequence was FAM-labeled […] (SEQ. ID NO. 3).
The real-time RT-PCR reactions were run on ABI PRISM 7900HT or Viia7 Sequence Detection System using the following program: 48° C. for 30 minutes, 95° C. for 10 minutes, 40 cycles of 95° C. for 15 sec, 60° C. for 1 minutes.
EC50 data for replicons 1A, 1AY93H and 2B were obtained using Replicon Assay A and EC50 data for replicon 1B was obtained using Replicon Assay B.

For the next test, the system named is HCV replicon 2B. The experiment in a line: Cell-based HCV replicon assay (Replicon Assay A), replicon 2B. As to conditions: read-out: EC50 replicon 2B; Replicon Assay A; replicon RNA by real time PCR, day 3. The method, then:
as §1, §2, §3, §4, §5

Another test concerns HCV replicon 1A Y93H. The experiment in a line: Cell-based HCV replicon assay (Replicon Assay A), replicon 1AY93H. Particulars: read-out: EC50 replicon 1A Y93H; Replicon Assay A; replicon RNA by real time PCR, day 3. The method, then:
as §1, §2, §3, §4, §5

The term EC50 denotes the concentration needed to bring the measured effect to its halfway point.

For the compound `COC(=O)NC(C(=O)N1CCC[C@H]1c1ncc(-c2ccc3c(c2)cc2n3C(c3ccc4c(c3)OCCC4)Oc3cc(-c4cnc([C@@H]5CCCN5C(=O)[C@@H](NC(=O)OC)C(C)C)[nH]4)cc(F)c3-2)[nH]1)C1C[C@@H](C)O[C@@H](C)C1` (single isomer, unassigned) [Compound 76], the EC50 was 2.5 pM in the test with HCV replicon 1A; 3.2 pM with HCV replicon 1B (Hepatitis C virus, 72 h); 4 pM in the test with HCV replicon 2B; 12 pM in the test with HCV replicon 1A Y93H.

`COC(=O)NC(C(=O)N1CCC[C@H]1c1ncc(-c2cc(F)c3c(c2)OC(c2ccc4c(c2)OCCC4)n2c-3cc3cc(-c4cnc([C@@H]5CCCN5C(=O)[C@@H](NC(=O)OC)C5CCOCC5)[nH]4)ccc32)[nH]1)C(C)(C)F` (single isomer, unassigned) [Compound 87]: the 50% effective concentration (EC50) with HCV replicon 1A was found to be 2.3 pM; in the test with HCV replicon 1B (Hepatitis C virus, 72 h), 3.4 pM; with HCV replicon 2B it was 133 pM; in the test with HCV replicon 1A Y93H, 528 pM.

Turning to `COC(=O)N[C@H](C(=O)N1CCC[C@H]1c1ncc(-c2ccc3c(c2)cc2n3C(c3ccc4c(c3)OCCC4)Oc3cc(-c4cnc([C@@H]5CCCN5C(=O)[C@@H](NC(=O)OC)C5CCOCC5)[nH]4)cc(F)c3-2)[nH]1)C(C)C` (single isomer, unassigned) [Compound 34], the EC50 in the test on HCV replicon 1A was determined as 2.1 pM; with HCV replicon 1B it was 3 pM; in the test on HCV replicon 2B, 5 pM; with HCV replicon 1A Y93H, 8 pM.

Turning to `COC(=O)N[C@H](C(=O)N1CCC[C@H]1c1ncc(-c2cc(F)c3c(c2)OC(c2ccc4c(c2)OCCC4)n2c-3c(F)c3cc(-c4cnc([C@@H]5CCCN5C(=O)[C@@H](NC(=O)OC)C5CCOCC5)[nH]4)ccc32)[nH]1)C(C)C` (single isomer, unassigned) [Compound 92], the 50% effective concentration (EC50) came out at 1.5 pM in the test with HCV replicon 1A; 2.4 pM in the test with HCV replicon 1B (Hepatitis C virus, 72 h); 6 pM in the test with HCV replicon 2B; 6 pM in the test on HCV replicon 1A Y93H.

Turning to `COC(=O)NC(C(=O)N1[C@@H]2C[C@@H]2C[C@H]1c1ncc(-c2ccc3c(c2)cc2n3C(c3ccc4c(c3)OCCC4)Oc3cc(-c4cnc([C@@H]5CCCN5C(=O)[C@@H](NC(=O)OC)C(C)C)[nH]4)cc(F)c3-2)[nH]1)C1CCOC(C)(C)C1` (single isomer, unassigned) [Compound 70], the concentration for a half-maximal effect (EC50) in the test on HCV replicon 1A was 2.8 pM; with HCV replicon 1B, 2.7 pM; with HCV replicon 2B it was 12 pM; in the test with HCV replicon 1A Y93H, 6 pM.

Consider `COC(=O)NC(C(=O)N1CCC[C@H]1c1ncc(-c2cc(F)c3c(c2)OC(c2ccc4c(c2)OCCC4)n2c-3cc3cc(-c4cnc([C@@H]5CCCN5C(=O)[C@@H](NC(=O)OC)C5CCOCC5)[nH]4)ccc32)[nH]1)C(C)(C)F` (single isomer, unassigned) [Compound 88], for which the EC50 with HCV replicon 1A was found to be 14.9 pM; in the test on HCV replicon 1B, 2.6 pM; in the test on HCV replicon 2B, 3110 pM; in the test with HCV replicon 1A Y93H, 9930 pM.

Turning to `COC(=O)NC(C(=O)N1[C@@H]2C[C@@H]2C[C@H]1c1ncc(-c2ccc3c(c2)cc2n3C(c3ccc4c(c3)CCCO4)Oc3cc(-c4cnc([C@@H]5CCCN5C(=O)[C@@H](NC(=O)OC)C(C)C)[nH]4)cc(F)c3-2)[nH]1)C1C[C@@H](C)O[C@@H](C)C1` (single isomer, unassigned) [Compound 65], the EC50 with HCV replicon 1A (Hepatitis C virus, 72 h) was 2.9 pM; in the test on HCV replicon 1B (Hepatitis C virus, 72 h), 1.8 pM; in the test on HCV replicon 2B it was 935 pM; with HCV replicon 1A Y93H, 43 pM.

On to `COC(=O)NC(C(=O)N1CCC[C@H]1c1ncc(-c2ccc3c(c2)cc2n3C(c3ccc4c(c3)CCCO4)Oc3cc(-c4cnc([C@@H]5CCCN5C(=O)[C@@H](NC(=O)OC)C(C)C)[nH]4)cc(F)c3-2)[nH]1)C1C[C@@H](C)O[C@@H](C)C1` (single isomer, unassigned) [Compound 73], for which the EC50 with HCV replicon 1A (Hepatitis C virus, 72 h) stood at 3.1 pM; in the test on HCV replicon 2B it was 791 pM; with HCV replicon 1A Y93H, 1360 pM.

As to `COC(=O)N[C@H](C(=O)N1CCC[C@H]1c1ncc(-c2cc(F)c3c(c2)OC(c2ccc4c(c2)OCCC42CC2)n2c-3cc3cc(-c4cnc([C@@H]5CCCN5C(=O)[C@@H](NC(=O)OC)C(C)C)[nH]4)ccc32)[nH]1)C(C)C` (single isomer, unassigned) [Compound 16], the concentration giving a half-maximal response (EC50) in the test with HCV replicon 1A was 2 pM; with HCV replicon 2B it was 38 pM; in the test with HCV replicon 1A Y93H it was 31 pM.

Turning to `COC(=O)N[C@H](C(=O)N1CCC[C@H]1c1ncc(-c2cc(F)c3c(c2)OC(c2ccc4c(c2)OCCC4C)n2c-3cc3cc(-c4cnc([C@@H]5CCCN5C(=O)[C@@H](NC(=O)OC)C(C)C)[nH]4)ccc32)[nH]1)C(C)C` (single isomer, unassigned) [Compound 9], the half-maximal effective concentration (EC50) in the test with HCV replicon 1A is 2.6 pM; in the test with HCV replicon 2B it was 772 pM; in the test with HCV replicon 1A Y93H it was 949 pM.

For `COC(=O)N[C@H](C(=O)N1CCC[C@H]1c1ncc(-c2cc(F)c3c(c2)OC(c2ccc4c(c2)CCCO4)n2c-3cc3cc(-c4cnc([C@@H]5C[C@H]6C[C@H]6N5C(=O)[C@@H](NC(=O)OC)C(C)C)[nH]4)ccc32)[nH]1)C(C)C` (single isomer, unassigned) [Compound 46], the EC50 in the test on HCV replicon 1A is 2.6 pM; in the test with HCV replicon 2B it was 7710 pM; in the test with HCV replicon 1A Y93H, 4130 pM.

Consider `COC(=O)N[C@H](C(=O)N1CCC[C@H]1c1ncc(-c2cc(F)c3c(c2)OC(c2ccc4c(c2)OCCC4)n2c-3c(F)c3cc(-c4cnc([C@@H]5CCCN5C(=O)[C@@H](NC(=O)OC)C5CCOCC5)[nH]4)ccc32)[nH]1)C(C)C` (single isomer, unassigned) [Compound 91], for which the EC50 in the test on HCV replicon 1A (Hepatitis C virus, 72 h) amounted to 1.1 pM; with HCV replicon 2B, 123 pM; in the test on HCV replicon 1A Y93H, 893 pM.

Turning to `COC(=O)N[C@H](C(=O)N1CCC[C@H]1c1ncc(-c2cc(F)c3c(c2)OC(c2ccc4c(c2)CC2CC2(C)O4)n2c-3cc3cc(-c4cnc([C@@H]5CCCN5C(=O)[C@@H](NC(=O)OC)C(C)C)[nH]4)ccc32)[nH]1)C(C)C` (single isomer, unassigned) [Compound 26], the EC50 with HCV replicon 1A came to 2.8 pM; in the test with HCV replicon 2B, 1410 pM; with HCV replicon 1A Y93H, 344 pM.

In the case of `COC(=O)NC(C(=O)N1CCC[C@H]1c1ncc(-c2ccc3c(c2)cc2n3C(c3ccc4c(c3)OC(C)CC4)Oc3cc(-c4cnc([C@@H]5CCCN5C(=O)[C@@H](NC(=O)OC)C(C)C)[nH]4)cc(F)c3-2)[nH]1)C1C[C@@H](C)O[C@@H](C)C1` (single isomer, unassigned) [Compound 57], the EC50 worked out at 2 pM with HCV replicon 1A (Hepatitis C virus, 72 h); 330 pM in the test with HCV replicon 2B; 685 pM with HCV replicon 1A Y93H.

Regarding `COC(=O)N[C@H](C(=O)N1CCC[C@H]1c1ncc(-c2cc(F)c3c(c2)OC(c2ccc4c(c2)OCCC42CC2)n2c-3cc3cc(-c4cnc([C@@H]5CCCN5C(=O)[C@@H](NC(=O)OC)C(C)C)[nH]4)ccc32)[nH]1)C(C)C` (single isomer, unassigned) [Compound 15], the concentration giving a half-maximal response (EC50) in the test on HCV replicon 1A (Hepatitis C virus, 72 h) came out at 1.2 pM; with HCV replicon 2B it was 1310 pM; with HCV replicon 1A Y93H, 2150 pM.

For `COC(=O)NC(C(=O)N1[C@@H]2C[C@@H]2C[C@H]1c1ncc(-c2ccc3c(c2)cc2n3C(c3ccc4c(c3)OCCC4)Oc3cc(-c4cnc([C@@H]5CCCN5C(=O)[C@@H](NC(=O)OC)C(C)C)[nH]4)cc(F)c3-2)[nH]1)C1CCO[C@H](C)C1` (single isomer, unassigned) [Compound 81], the EC50 turned out to be 2 pM in the test with HCV replicon 1A (Hepatitis C virus, 72 h); 270 pM in the test with HCV replicon 2B; 188 pM in the test with HCV replicon 1A Y93H.
